Data set [1] deals with T1, Programmed cell death protein 1/Programmed cell death 1 ligand 1 (Homo sapiens, UniProt Q9NZQ7). Kind of data set: (§1) Inhibition of Tag2-PD1/Tag1-PD-L1 (unknown origin) protein-protein interaction preincubated for 15 mins followed by addition of anti-Tag1-Eu3+ and anti-Tag2-XL665 measured after 2 hrs in dark by HTRF assay. Type of data set: protein-complex assay.
For data set [2], the target named is hERG (KCNH2) (Homo sapiens, UniProt Q12809). Kind of data set: Inhibition of human ERG expressed in HEK293 cells at 10 uM measured by whole cell patch-clamp assay. The conditions noted are these: HEK293 cells that express hERG. Type of data set: cell-based.
Sequence of hERG (KCNH2) (Q12809 whole entry): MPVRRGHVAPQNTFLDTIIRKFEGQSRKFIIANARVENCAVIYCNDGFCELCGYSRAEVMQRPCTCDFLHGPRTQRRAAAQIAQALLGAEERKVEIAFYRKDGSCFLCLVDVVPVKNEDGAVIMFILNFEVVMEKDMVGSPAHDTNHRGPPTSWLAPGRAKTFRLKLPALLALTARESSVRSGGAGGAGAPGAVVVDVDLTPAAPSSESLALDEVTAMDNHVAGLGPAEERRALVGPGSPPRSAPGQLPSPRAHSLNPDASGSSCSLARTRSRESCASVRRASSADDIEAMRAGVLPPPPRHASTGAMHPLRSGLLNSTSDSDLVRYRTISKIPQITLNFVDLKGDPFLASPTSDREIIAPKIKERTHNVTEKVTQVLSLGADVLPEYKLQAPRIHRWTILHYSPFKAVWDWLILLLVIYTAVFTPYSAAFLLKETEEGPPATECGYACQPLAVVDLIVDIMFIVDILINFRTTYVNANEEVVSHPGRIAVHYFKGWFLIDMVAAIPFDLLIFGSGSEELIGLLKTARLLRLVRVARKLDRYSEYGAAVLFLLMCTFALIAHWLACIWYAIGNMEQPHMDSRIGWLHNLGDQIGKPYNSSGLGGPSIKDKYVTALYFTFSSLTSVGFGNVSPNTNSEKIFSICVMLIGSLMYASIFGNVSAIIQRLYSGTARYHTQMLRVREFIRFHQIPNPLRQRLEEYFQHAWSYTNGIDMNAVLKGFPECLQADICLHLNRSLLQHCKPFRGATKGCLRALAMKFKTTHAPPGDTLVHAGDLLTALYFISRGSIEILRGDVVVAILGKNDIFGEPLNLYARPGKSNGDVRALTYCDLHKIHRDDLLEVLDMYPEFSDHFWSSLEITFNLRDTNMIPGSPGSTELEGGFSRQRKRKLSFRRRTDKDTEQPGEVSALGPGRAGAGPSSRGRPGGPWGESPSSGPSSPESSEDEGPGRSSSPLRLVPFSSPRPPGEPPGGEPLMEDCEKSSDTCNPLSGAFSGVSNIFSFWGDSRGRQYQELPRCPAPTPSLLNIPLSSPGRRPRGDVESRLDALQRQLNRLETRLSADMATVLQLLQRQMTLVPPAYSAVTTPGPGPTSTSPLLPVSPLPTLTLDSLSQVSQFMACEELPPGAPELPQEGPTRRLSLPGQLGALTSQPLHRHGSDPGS
Data set [3] deals with L02. As to the kind of experiment: Cytotoxicity against human HL7702 cells at 2 to 10 uM measured after 48 hrs by CCK8 assay. The data set is classed as cell-based. The conditions noted are these: l02, 48 h, dose 2-10 µM.
Data set [4] deals with T2, Programmed cell death protein 1/Programmed cell death 1 ligand 1 (Homo sapiens, UniProt Q15116+Q9NZQ7). As to conditions: time 6.0 hrs; call rule not given here.
T2 sequence (Q15116 whole entry): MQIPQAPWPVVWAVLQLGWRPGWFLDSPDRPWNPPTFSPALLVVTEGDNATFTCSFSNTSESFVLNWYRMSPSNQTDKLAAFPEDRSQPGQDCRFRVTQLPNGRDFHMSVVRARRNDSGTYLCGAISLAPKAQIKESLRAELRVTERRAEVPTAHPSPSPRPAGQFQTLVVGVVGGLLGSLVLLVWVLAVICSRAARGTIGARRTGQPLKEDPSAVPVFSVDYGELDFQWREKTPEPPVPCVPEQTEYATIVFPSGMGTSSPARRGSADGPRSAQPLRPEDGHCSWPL
T2 sequence (Q9NZQ7 whole entry): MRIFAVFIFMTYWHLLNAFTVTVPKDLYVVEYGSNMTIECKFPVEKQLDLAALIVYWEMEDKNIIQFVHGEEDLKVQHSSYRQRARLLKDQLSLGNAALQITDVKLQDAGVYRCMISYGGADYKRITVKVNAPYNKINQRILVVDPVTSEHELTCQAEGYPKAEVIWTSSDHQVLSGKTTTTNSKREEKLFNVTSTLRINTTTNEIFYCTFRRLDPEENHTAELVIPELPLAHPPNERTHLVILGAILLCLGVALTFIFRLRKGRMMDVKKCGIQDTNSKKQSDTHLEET
The nature of data set [5]: Cytotoxicity against human HPDE6c7 cells at 2 to 10 uM measured after 48 hrs by CCK8 assay. Type of data set: cell-based. As to conditions: hpde6c7, 48 h, dose 2-10 µM.
Data set [6] deals with T1, Programmed cell death protein 1/Programmed cell death 1 ligand 1. Kind of data set: Inhibition of PD1/PDL1 protein-protein interaction in human Jurkat cells overexpressing PD1 co-cultured with human Hep3B cells expressing PDL1 protein assessed as increase of TCR-mediated luminiscence measured after 6 hrs by NFAT reporter assay. The data set is classed as cell-based.
Data set [7] is described as follows: Cytotoxicity against human PBMC at 3 uM measured after 48 hrs by CCK8 assay.
Data set [8] addresses T2, Programmed cell death protein 1/Programmed cell death 1 ligand 1. The data set is described as §1. The data set is classed as protein-complex assay.

T1 sequence (Q15116 whole entry): as the sequence (Q15116 whole entry) above
T1 sequence (Q9NZQ7 whole entry): as the sequence (Q9NZQ7 whole entry) above

`Cc1c(C(=O)Nc2ccc(CNCCO)cc2)cccc1-c1ccc2c(c1)OCCO2` showed a half-maximal inhibitory concentration (IC50) in data set [1] of more than 1000 nM. The same measure, in the same setting: the result for `COc1cc(-c2cccc(-c3cccc(-c4ccc(CNC(CO)CO)c(OC)c4)c3C)c2C)ccc1CO` reads 48.7 nM; that for `Cc1c(Nc2cc(-c3ccc(CNCCO)cc3)ccn2)cccc1-c1ccc2c(c1)OCCO2`, more than 1000 nM. As to `Cc1c(-c2ccc(CNCCO)cc2)cccc1-c1ccc2c(c1)OCCO2`, in data set [2], the inhibition at 10 µM turned out to be 98%. In data set [1], this molecule gave an IC50 of 16.2 nM. With `COc1cc(-c2cccc(-c3cccc(-c4ccc(CNC5CCCC5O)c(OC)c4)c3C)c2C)ccc1CNC1CCCC1O` (stereo not drawn), in data set [1], the midpoint of inhibition, the IC50, lay at 36.4 nM. With `COc1cc(-c2cccc(-c3cccc(-c4ccc(CN5CC(C(=O)O)C5)c(OC)c4)c3C)c2C)ccc1CN1CC(C(=O)O)C1`, the Activity result in data set [3], in data set [5] and in data set [7] was “Non-Toxic” throughout. In data set [4], this molecule returned an RLU of 35800. For the same molecule, the EC50 in data set [6] turned out to be 104 nM. For the same molecule, in data set [2], the inhibition at 10 µM turned out to be 3.93%. For the same molecule, in data set [1], half-maximal inhibition (IC50) required 4.23 nM.

Take `O=C(c1ccc(CNCCO)cc1)N1CCc2c(-c3cccc4c3CCN4C(=O)c3ccc(CNCCO)cc3)cccc21`: in data set [1], it took 18.6 nM to reach half-maximal inhibition (IC50).

Take `COc1cc(-c2cccc(-c3ccc4c(c3)OCCO4)c2C)ccc1CNCCO`: the inhibition at 10 µM in data set [2] worked out at 4.71%. In addition, the half-maximal inhibitory concentration (IC50) entry in data set [8] is recorded as “Not Active”. The molecule `Cc1c(-c2ccc3c(c2)OCCO3)cccc1N1CCN(c2cccc(CNCCO)c2)C1=O` registered an IC50 in data set [1] of more than 1000 nM.

In turn, `O=C(c1ccc(CNCCO)cc1)N1CCCc2c(-c3ccc4c(c3)OCCO4)cccc21` gave an IC50 in data set [1] of more than 1000 nM. On to `Cc1c(-c2ccc3c(c2)CCCN(CCO)C3)cccc1-c1ccc2c(c1)OCCO2`, for which, in data set [8], the IC50 result is “Not Active”. As for `Cc1c(-c2ccc3c(c2)OCCO3)cccc1N1CCN(c2ncc(CNCCO)s2)C1=O`, the IC50 in data set [1] was more than 1000 nM. On the same count and under the same terms, to `Cc1c(-c2ccc3c(c2)OCCO3)cccc1N1CCN(c2ccc(CNCCO)cn2)C1=O` belongs more than 1000 nM. The same measure, in the same setting: the result for `COc1cc(-c2cccc(-c3cccc(-c4ccc(CNC5CCOCC5)c(OC)c4)c3C)c2C)ccc1CNC1CCOCC1` reads 34.4 nM. On the same count and under the same terms, to `Cc1c(-c2ccc(CNCCO)cn2)cccc1-c1cccc(-c2ccc(CNCCO)cn2)c1C` belongs more than 1000 nM. For the molecule `COc1cc(-c2cccc(-c3cccc(-c4ccc(CNC(CO)C(=O)O)c(OC)c4)c3C)c2C)ccc1CNC(CO)C(=O)O` (stereo not drawn), the Activity entry in data set [3], in data set [5] and in data set [7] was “Non-Toxic” throughout. The RLU in data set [4] was 30600. Besides, in data set [6], the EC50 was 775 nM. Also, in data set [2], the inhibition at 10 µM was -0.67%. The midpoint of inhibition in data set [1], the IC50, lay at 3.9 nM. In turn, `Cc1c(NS(=O)(=O)c2ccc(CNCCO)cc2)cccc1-c1ccc2c(c1)OCCO2` had an IC50 in data set [1] of more than 1000 nM. As for `Cc1c(NC(c2ccc(CNCCO)cc2)C(F)(F)F)cccc1-c1ccc2c(c1)OCCO2` (stereo not drawn), in data set [1], the concentration for half-maximal inhibition (IC50) was more than 1000 nM. For the molecule `COc1cc(-c2cccc(-c3cccc(-c4ccc(CNC(CO)CO)c(OC)c4)c3C)c2C)ccc1CNC(CO)CO`, in data set [1], the IC50 is more than 1000 nM. Same read-out and setting: the result for `Cc1c(Nc2cccc(-c3ccc(CNCCO)cc3)n2)cccc1-c1ccc2c(c1)OCCO2` reads more than 1000 nM. For the molecule `Cc1c(-c2ccc3c(c2)OC(=O)N(CC(=O)O)C3)cccc1-c1ccc2c(c1)OCCO2`, the IC50 result in data set [8] is given as “Not Active”. In the case of `O=C(c1ccc(CNCCO)cc1)N1CCc2c(-c3ccc4c(c3)OCCO4)cccc21`, the IC50 in data set [1] was 150 nM.

As for `Cc1c(-c2ccc3c(c2)OCCO3)cccc1-c1ccc(CNCCO)o1`, 191 nM corresponded to half-maximal inhibition in data set [1] (IC50).

Turning to `Cc1c(-c2ccc3c(c2)OCCO3)cccc1N1CCN(c2cccc(CNCCO)n2)C1=O`, the IC50 in data set [1] is more than 1000 nM. For the molecule `COc1cc(-c2cccc(-c3cccc(-c4ccc(CNCC5CCC(=O)N5)c(OC)c4)c3C)c2C)ccc1CNCC1CCC(=O)N1` (stereo not drawn), the IC50 in data set [1] is 139 nM. With `COc1cc(-c2cccc(-c3cccc(-c4ccc(CNCC(O)C(=O)O)c(OC)c4)c3C)c2C)ccc1CNCC(O)C(=O)O` (stereo not drawn), the Activity entry in data set [3], in data set [5] and in data set [7] was “Non-Toxic” throughout. For the same molecule, the RLU in data set [4] turned out to be 27000. For the same molecule, in data set [6], the EC50 was 376 nM. In addition, in data set [2], the inhibition at 10 µM came to 7.72%. The IC50 in data set [1] was found to be 4.01 nM. Regarding `Cc1c(-c2ccc3c(c2)OCCO3)cccc1-c1ccc(CNCCO)s1`, the IC50 result in data set [8] is on record as “Not Active”. Take `Cc1c(-c2ccc3c(c2)OCCO3)cccc1N(C)C(=O)c1ccc(CNCCO)cn1`: in data set [1], the IC50 is 764 nM. On to `Cc1c(-c2ccc3c(c2)OC(=O)N(CCO)C3)cccc1-c1ccc2c(c1)OCCO2`, for which the IC50 entry in data set [8] is on record as “Not Active”.

In data set [1], `Cc1c(-c2ccc(CNCCO)cc2)cccc1-c1cccc(-c2ccc(CNCCO)cc2)c1C` yielded an IC50 of 45.6 nM. In data set [1], `Cc1c(-c2ccc3c(c2)OCCO3)cccc1-c1ccc(CNCCO)cn1` returned an IC50 of 19.6 nM. The molecule `COc1cc(-c2cccc(-c3cccc(-c4ccc(CN5CCCCC5C(=O)O)c(OC)c4)c3C)c2C)ccc1CO` (stereo not drawn) showed an IC50 in data set [1] of 472 nM. Still for that read-out and setting: the result for `COc1cc(-c2cccc(-c3cccc(-c4ccc(CNCCO)c(OC)c4)c3C)c2C)ccc1CNCCO` reads 48.6 nM; that for `Cc1c(NC(=O)c2ccc(CNCCO)cn2)cccc1-c1ccc2c(c1)OCCO2`, 5.04 nM.

Take `O=C(c1ccc(CNCCO)cc1)n1ccc2c(-c3cccc4c3ccn4C(=O)c3ccc(CNCCO)cc3)cccc21`: inhibition in data set [1] was half-maximal at 309 nM (IC50). Take `Cc1c(-c2ccc3c(c2)OCCO3)cccc1N1Cc2cc(CNCCO)ccc2C1=O`: the IC50 in data set [1] is more than 1000 nM. Still for that read-out and setting: to `COc1cc(-c2cccc(-c3cccc(-c4ccc(CO)c(OC)c4)c3C)c2C)ccc1CO` belongs 481 nM; to `O=C(c1ccc(CNCCO)cc1)n1ccc2c(-c3ccc4c(c3)OCCO4)cccc21`, more than 1000 nM. In the case of `Cc1c(-c2ccc3c(c2)NCC(=O)N(CCO)C3)cccc1-c1ccc2c(c1)OCCO2`, the IC50 result in data set [8] is reported as “Not Active”. In data set [1], `Cc1c(NC(=O)c2ccc(CNCCO)nc2)cccc1-c1ccc2c(c1)OCCO2` came in with an IC50 of more than 1000 nM. In data set [1], `Cc1c(-c2ccc3c(c2)OCCO3)cccc1-c1nnc(-c2ccc(CNCCO)cc2)o1` came in with an IC50 of more than 1000 nM. The same measure, in the same setting: the result for `Cc1c(NC(=O)c2ccc(CNCCO)cc2)cccc1-c1ccc2c(c1)OCCO2` reads more than 1000 nM; that for `Cc1c(-c2ccc3c(c2)OCCO3)cccc1N1CCN(c2ccc(CNCCO)cc2)C1=O`, more than 1000 nM.

Values taken from ChEMBL document CHEMBL4828707, “Discovery of phenyl-linked symmetric small molecules as inhibitors of the programmed cell death-1/programmed cell death-ligand 1 interaction” (Eur J Med Chem, 2021).
